Where two headings read alike, the source gives them in different places.

The target in one assay is T1, topoisomerase 1 (TOP1) (Homo sapiens, UniProt P11387).
T1 sequence (P11387 2-765): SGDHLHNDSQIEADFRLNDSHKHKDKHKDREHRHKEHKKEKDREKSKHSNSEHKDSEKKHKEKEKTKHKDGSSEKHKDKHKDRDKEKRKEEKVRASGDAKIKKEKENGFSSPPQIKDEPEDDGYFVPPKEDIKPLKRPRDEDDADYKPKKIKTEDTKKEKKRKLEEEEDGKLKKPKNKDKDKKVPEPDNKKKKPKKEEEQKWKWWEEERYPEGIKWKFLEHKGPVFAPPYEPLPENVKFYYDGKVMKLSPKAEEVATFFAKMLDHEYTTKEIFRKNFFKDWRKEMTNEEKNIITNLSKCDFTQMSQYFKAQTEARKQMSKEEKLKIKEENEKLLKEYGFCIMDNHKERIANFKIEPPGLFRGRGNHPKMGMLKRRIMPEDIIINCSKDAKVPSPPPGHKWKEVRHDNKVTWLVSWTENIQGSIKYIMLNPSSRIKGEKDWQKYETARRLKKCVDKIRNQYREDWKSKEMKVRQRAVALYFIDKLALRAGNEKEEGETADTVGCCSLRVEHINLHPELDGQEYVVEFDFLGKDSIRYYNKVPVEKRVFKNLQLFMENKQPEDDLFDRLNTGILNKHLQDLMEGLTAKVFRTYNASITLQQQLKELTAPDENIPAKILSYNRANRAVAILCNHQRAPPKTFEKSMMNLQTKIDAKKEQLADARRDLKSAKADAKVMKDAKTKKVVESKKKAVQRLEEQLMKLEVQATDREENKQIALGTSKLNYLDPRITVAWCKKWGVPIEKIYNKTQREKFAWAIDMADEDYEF
In words: REEAD cleavage-ligation assay with purified TOP1, […] CPT. It counts as biochemical.

Assay [1] deals with tyrosyl-DNA phosphodiesterase 1 (TDP1) (Homo sapiens, UniProt Q9NUW8). In words: fluorescent hairpin DNA sensor (ATTO488/BHQ1) assay with purified human TDP1, 13-point dose response. It counts as biochemical.
Chain of tyrosyl-DNA phosphodiesterase 1 (TDP1) (Q9NUW8 whole entry): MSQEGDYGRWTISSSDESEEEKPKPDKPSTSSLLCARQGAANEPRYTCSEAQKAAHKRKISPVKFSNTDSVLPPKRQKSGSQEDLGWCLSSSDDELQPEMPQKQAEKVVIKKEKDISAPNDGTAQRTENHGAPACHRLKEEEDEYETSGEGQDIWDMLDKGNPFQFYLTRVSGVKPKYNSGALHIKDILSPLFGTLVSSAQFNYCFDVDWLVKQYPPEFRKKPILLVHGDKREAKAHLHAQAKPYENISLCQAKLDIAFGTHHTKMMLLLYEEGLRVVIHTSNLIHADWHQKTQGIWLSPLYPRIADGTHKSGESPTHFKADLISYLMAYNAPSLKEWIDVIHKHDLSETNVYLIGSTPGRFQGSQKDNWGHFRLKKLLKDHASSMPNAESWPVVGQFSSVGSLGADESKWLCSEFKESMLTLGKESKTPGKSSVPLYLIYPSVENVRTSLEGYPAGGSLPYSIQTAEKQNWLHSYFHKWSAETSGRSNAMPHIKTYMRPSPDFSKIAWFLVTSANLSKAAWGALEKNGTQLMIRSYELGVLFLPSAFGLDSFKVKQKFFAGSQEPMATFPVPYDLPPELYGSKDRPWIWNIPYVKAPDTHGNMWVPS

Consider `CC[C@@]1(O)C(=O)OCc2c1cc1n(c2=O)Cc2cc3ccccc3nc2-1` [CPT, camptothecin], for which, at topoisomerase 1 (TOP1), the “REEAD cleavage-ligation assay with purified TOP1, 80 μM CPT” value is reported as “CPT control is a positive control for TOP1 inhibition”.

With `COc1ccc(-c2cc(-c3ccc([N+](=O)[O-])cc3)nc3cccnc23)cc1` [NAF-15], the IC50 in assay [1] (read-out: IC50) was 37.8 µM.

The molecule `FC(F)(F)c1ccc(C2CC(c3ccccc3)c3cccc(P(=S)(c4ccccc4)c4ccccc4)c3N2)cc1` (stereo not shown) [PSTHQ-2] yielded an IC50 in assay [1] of 4.28 µM.

In assay [1], `O=[N+]([O-])c1ccc(C2CC(c3ccccc3)c3cccc(P(=S)(c4ccccc4)c4ccccc4)c3N2)cc1` (stereo not shown) [PSTHQ-13] displayed a half-inhibitory concentration (IC50) of 13.1 µM.

The IC50 is the concentration needed to halve the response being measured.

The record behind these values is article PMC8309759, “A Dual-Sensor-Based Screening System for In Vitro Selection of TDP1 Inhibitors” (Sensors (Basel, Switzerland), 2021).
